Reference: patent US8501911B2, “Methods of reducing inflammation and mucus hypersecretion” (Biomarck Pharmaceuticals, Ltd, priority 1999, dated 2013)
Several values for one entry are separate records, joined by “and”; a condition that tells them apart may be missing. Equal values may be shown once. Read-outs that look alike come from different tables or passages of the source. Residues, ends and D or L forms follow the SMILES beside them. *: point of attachment. Myristoyl = CCCCCCCCCCCCCC(=O)*

Tests used:
NHBE cells [1] = experiment: UTP-induced mucin secretion from NHBE cells (ELISA); format: cell-based, human; settings: for activity at 100 µM: Homo sapiens, NHBE
Protocol: In Results-I-1D, NHBE cells were preincubated with the indicated inhibitor for 15 min and then stimulated with 100 μM UTP for 2 h. Secreted mucin in response to the treatment was collected and assayed by ELISA. Data are presented as mean±S.E. (n=6 at each point).
UTP is a well defined pathophysiologically relevant mucin secretagogue. Lethem ct al., Am. J. Respir. Cell Mol. Biol. 9, 315-322 (1993). […] To determine whether PKC and PKG were involved in regulation of mucin secretion in response to a pathophysiological stimulus, effects of PKC/PKG inhibitors on UTP-induced mucin secretion were investigated. NHBE cells were preincubated with various inhibitors for 15 min and then exposed to UTP (100 μM) plus the inhibitor for 2 h. The secreted mucin was measured by ELISA. […] Apparently, mucin secretion in NHBE cells may be regulated by a signaling mechanism involving both PKC and PKG.
(§1) Peptide Blocking Studies—NHBE cells were preincubated with either the MANS or the RNS peptide (1-100 μM) for 15 min, and then PMA (100 nM)+8-Br-cGMP (1 μM) or UTP (100 μM) was added, and cells were incubated for an additional 15 min or 2 h. respectively. Mucin secretion was measured by ELISA and experimental results are designated as Results-I-2B-1 and Results-I-2B-2, as follows.
PP2A is an essential component of the mucin secretory pathway. NHBE cells were preincubated with the indicated concentration of fostriecin, okadaic acid (500 nM), or medium alone for 15 min and then stimulated with PMA (100 nM)+8-Br-cGMP (1 μM) for 15 min or with UTP (100 μM) for 2 h. Secreted mucin was measured by ELISA. […] Thus, dephosphorylation of MARCKS by a PKG-activated PP2A appears to be an essential component of the signaling pathway leading to mucin granule exocytosis.
(§2) Measurement of Mucin Secretion by ELISA—Before collection of “base line” and “test” mucin samples, the accumulated mucus at the apical surface of the cells was removed by washing with phosphate-buffered saline, pH 7.2. To collect the base-line secretion, cells were incubated with medium alone, and secreted mucin in the apical medium was collected and reserved. Cells were rested for 24 h and then exposed to medium containing the selected stimulatory and/or inhibitory reagents (or appropriate controls), after which secreted mucin was collected and reserved as the test sample. Incubation times for the base line and the test were the same but varied depending on the test reagent utilized. Both base line and test secretions were analyzed by ELISA using an antibody capture method as known in the art. See, e.g., Harlow et al., Antibodies: A Laboratory Manual, pp. 570-573, Cold Spring Harbor Laboratory, Cold Spring Harbor, N.Y. (1988). The primary antibody for this assay was 17Q2 (Babco, Richmond, Calif.), a monoclonal antibody that reacts specifically with a carbohydrate epitope on human airway mucins. The ratio of test/base-line mucin, which is similar to a “secretory index”, was used to quantify mucin secretion, allowing each culture dish to serve as its own control and thus, minimizing deviation caused by variability among culture wells. Wright et al., Am. J. Physiol. 271, L854-L861 (1996). Levels of mucin secretion were reported as percentage of the medium control.
These experiments were carried out similarly to those described in Example 7. To test for stimulated secretion, the cells were exposed apically and basolaterally to uridine 5′-triphosphate (UTP) at a concentration of 0.1 mM in media. Cells were pre-incubated for 15 minutes with the MANS peptide and test cultures were then co-incubated with the MANS peptide and UTP for 45 minutes.
NHBE cells were pre-incubated with okadaic acid (500 nM) for 15 min at 37° C./5% CO2, then stimulated with PMA (100 nM)+8-Br-cGMP (1 μM) for 15 min, or with UTP (0.1 mM) for 2 hours. Secreted mucin in the apical medium was collected and assayed by ELISA. […]

NHBE cells [2] = experiment: PMA+8-Br-cGMP-induced mucin secretion from NHBE cells (ELISA); format: cell-based, human; settings: inhibitor 500 nM, 15 min preincubation, then PMA 100 nM+8-Br-cGMP 1 μM 15 min
Protocol: as §1, with “follows. […]” for “follows.”
as §2
MARCKS-related Peptides—Both the myristoylated N-terminal sequence (MANS) and the random N-terminal sequence (RNS) peptides were synthesized at Genemed Synthesis, Inc. (San Francisco, Calif.), then purified by high pressure liquid chromatography (>95% pure), and confirmed by mass spectroscopy with each showing one single peak with an appropriate molecular mass. The MANS peptide consisted of sequence identical to the first 24 amino acids of MARCKS, i.e. the myristoylated N-terminal region that mediates MARCKS insertion into membranes, MA-[…] (SEQ ID NO: 1) (where MA=N-terminal myristate chain). The corresponding control peptide (RNS) contained the same amino acid composition as the MANS but arranged in random order, MA-[…] (SEQ ID NO: 26). The presence of the hydrophobic myristate moiety in these synthetic peptides enhances their permeability to the plasma membranes, enabling the peptides to be taken up readily by cells. To determine the effects of these peptides on mucin secretion, cells were preincubated with the peptides for 15 min prior to addition of secretagogues, and mucin secretion was then measured by ELISA.
Antisense Oligonucleotides—MARCKS antisense oligonucleotide and its corresponding control oligonucleotide were synthesized at Biognostik GmbH (Gottingen, Germany). NHBE cells were treated with 5 μM antisense or control oligonucleotide apically for 3 days (in the presence of 2 μg/ml lipofectin for the first 24 h). Cells were then incubated with secretagogues, and mucin secretion was measured by ELISA. Total RNA and protein were isolated from treated cells. MARCKS mRNA was assessed by Northern hybridization according to conventional procedures using human MARCKS cDNA as a probe. MARCKS protein level was determined by Western blot using purified anti-MARCKS IgG1 (clone 2F12) as the primary detection antibody.
The effect on mucus secretion of a myristoylated peptide containing the first 24 amino acids of the human MARCKS protein (MANS; myristoylated N-terminal sequence; SEQ ID NO: ) was tested. Cultured normal human bronchial epithelial cells as described above were used. […]

human neutrophils = experiment: Human neutrophil chemotactic migration assay; format: cell-based; settings: test peptide 50 μM; fMLP 100 nM; 0 = inactive
Protocol: Human neutrophils were isolated from heparinized whole blood collected from healthy adult donors via cephalic venipuncture by a slightly modified method as described by Akasaki et al., 1999 (Akasaki T, Koga H, and Sumimoto H., Phosphoinositide 3-kinase-dependent and -independent activation of the small GTPase Rac2 in human neutrophils, J. Biol. Chem. 274:18055-18059, 1999). The blood was mixed with dextran (final concentration 1.4% dextran) and then allowed to settle for 60 minutes, after which time the leukocyte rich plasma was collected and layered onto 5 mL of Ficoll-Paque PLUS in 15 ml, conical tubes. The plasma was centrifuged at 1800 rpm for 20 minutes at room temperature. The residual erythrocytes were lysed utilizing a hypotonic saline and the remaining neutrophils were re-suspended in Hank's balanced salt solution containing 20 mM HEPES and 8.9 mM sodium bicarbonate without calcium or magnesium (HBSS), yielding neutrophils that were greater than 98% pure and greater than 99% viable.
Neutrophil migration assay was performed according to the method described by Frevert C W, Wong V A, Goodman R B, Goodwin R, and Martin T R., Rapid fluorescence-based measurement of neutrophil migration in vitro, J. Immunol. Methods, 213:41-52, 1998. Human neutrophils were labeled with the fluorescent dye calcein for 30 minutes at room temperature. Cells were then washed and resuspended in a migration buffer containing HBSS with 2% FCS. Cells were treated with buffer alone or with the indicated test peptide (50 μM) for 30 minutes at 37° C. Treated cells (1×10^4 cells) were then placed on the upper side of a ChemoTx® chemotaxis plate (Neuroprobe, Gaithersburg, Md.) membrane (2 μm pore size). Lower wells of the plate were filled with migration buffer alone or with buffer containing fMLP (100 nM), LTB4 (100 nM), or PAF (100 nM). Wells containing 1×10^4 labeled cells were used as standards to calculate migration percentage. Cells were allowed to migrate for 1 hour at 37° C. After incubation, cells on the top of the filter were washed away with PBS. Followed by this, 0.5 mM EDTA was added to the top of the filter for 5 min to detach adherent cells and the membrane was again washed. The plate was then centrifuged at 1000 rpm for 1 min. The filter was removed and the fluorescence was measured in the lower wells (485 nm excitation, 530 nm emission wavelength) using an fMax fluorescence plate reader (Molecular Devices, Sunnyvale, Calif.). Percent migration was determined by dividing the fluorescence of each well by the fluorescence of the standard wells containing 1×10^4 labeled cells. A lesser number of migrated neutrophils in the bottom compartment is indicative of the test peptide being an inhibitor of inflammation.

MARCKS = MARCKS phosphorylation in NHBE cells (radiolabeled immunoprecipitation assay); format: cell-based, human
Protocol: NHBE cells were labeled with [^32 P]orthophosphate and then exposed to the reagents: (a) Rp-8-Br-PET-cGMP (100 μM); (b) okadaic acid (500 nM); (c) 8-Br-cGMP (1 μM); and (d) PMA (100 nM). MARCKS phosphorylation in response to the treatments was evaluated by immunoprecipitation assay.
To reveal molecular events by which MARCKS links kinase activation to mucin secretion, phosphorylation of MARCKS in response to PKC/PKG activation was investigated in depth, and results are presented as Results-I-4A. […] Once phosphorylated, MARCKS was translocated from the plasma membrane to the cytoplasm. More specifically, the activation of PKC results in MARCKS phosphorylation in NHBE cells. Cells were labeled with [^32 P]orthophosphate for 2 h and then exposed to the stimulatory and/or inhibitory reagents (see below). MARCKS phosphorylation in response to the treatments was evaluated by immunoprecipitation with the following specifics, designated Results-I-4A:
[^32P]phosphate, cells were preincubated for 2 h in phosphate-free Dulbecco's modified Eagle's medium containing 0.2% bovine serum albumin and then labeled with 0.1 mCi/ml [^32 P]orthophosphate (9000 Ci/mmol, PerkinElmer Life Sciences) for 2 h. For labeling with [^3H]myristic acid or ^3H-amino acids, cells were incubated overnight in medium containing 50 μCi/ml [^3H]myristic acid (49 Ci/mmol, PerkinElmer Life Sciences) or 0.2 mCi/ml [^3H]leucine (159 Ci/mmol, PerkinElmer Life Sciences) plus 0.4 mCi/ml [^3H]proline (100 Ci/mmol, PerkinElmer Life Sciences). Following labeling, cells were exposed to stimulatory reagents for 5 min. When an inhibitor was used, cells were preincubated with the inhibitor for 15 min prior to stimulation. At the end of the treatments, cells were lysed in a buffer containing 50 mM Tris-HCl (pH 7.5), 150 mM NaCl, 1 mM EDTA, 10% glycerol, 1% Nonidet P-40, 1 mM phenylmethylsulfonyl fluoride, 1 mM benzamidine, 10 μg/ml pepstatin A, and 10 μg/ml leupeptin. Trichloroacetic acid precipitation and scintillation counting may determine the radiolabeling efficiency in each culture. Immunoprecipitation of MARCKS protein was carried out according to the method of Spizz and Blackshear using cell lysates containing equal counts/min. Spizz et al., J. Biol. Chem. 271, 553-562 (1996). Precipitated proteins were resolved by 8% SDS-polyacrylamide gel electrophoresis and visualized by autoradiography. Anti-human MARCKS antibody (2F12) and nonimmune control antibody (6F6) were used in this assay.
Phosphorylation of MARCKS by PMA was attenuated by Calphostin C (500 nM). NHBE cells also contained substantial amounts of cGMP-dependent protein kinase type 1α (PKG-1α) activity, which was localized to the cytosolic fraction. […] In addition, the phosphorylation of MARCKS induced by PMA was reversed by incubation with 8-Br-cGMP (10 μM).

[3] = inhibitor 500 nM, 15 min preincubation, then UTP 100 μM 2 h

With `CCCCCCOC(=O)[C@]1(O)C[C@@H]2O[C@@]1(C)n1c3ccccc3c3c4c(c5c6ccccc6n2c5c31)C(=O)NC4` [KT5720] the “Mucin secretion as percent of control” value (NHBE cells [1]; [3]) was 157% and 160% and the “Mucin secretion as % of control” value (NHBE cells [2]) was “did not affect”.
For `O=C1C(Nc2ccccc2)=CC(=O)c2ncccc21` [LY83583], the “Mucin secretion as percent of control” value (NHBE cells [1]; inhibitor 50 μM, 15 min preincubation, then UTP 100 μM 2 h) was 111% and 112%.
`CCCCCCCCCCCCCC(=O)NCC(=O)N[C@@H](C)C(=O)N[C@@H](CCC(N)=O)C(=O)N[C@@H](Cc1ccccc1)C(=O)N[C@@H](CO)C(=O)N[C@@H](CCCCN)C(=O)N[C@H](C(=O)N[C@@H](C)C(=O)O)[C@@H](C)O` [SEQ ID NO: 17, N-myristoyl-GAQFSKTA] (Myristoyl-GAQFSKTA-OH; C-terminus assumed) was tested, and the “Neutrophil Migration (% Inhibition), fMLP” value (human neutrophils) was 92.2%.
`O=c1ccn([C@@H]2O[C@H](COP(=O)(O)OP(=O)(O)OP(=O)(O)O)[C@@H](O)[C@H]2O)c(=O)[nH]1` [UTP, uridine 5′-triphosphate] was tested, and the activity at 100 µM (NHBE cells [1]; 0.75 h, 0.1 mM UTP 45 min, no peptide (Results-M-2), read-out: Mucin secretion, % of control levels) was 159%, the activity at 100 µM (NHBE cells [1]; 2 h, UTP 100 μM (0.1 mM) 2 h, no inhibitor, read-out: Mucin secretion as percent of control) was 159% and the “Mucin secretion as percent of control” value (NHBE cells [1]; UTP 100 μM (0.1 mM) 2 h, no inhibitor) was 156% and 161% and 152%.
Calphostin C was tested, and the “Mucin secretion as percent of control” value (NHBE cells [1]; [3]) was 120%, the “Mucin secretion as percent of control” value (NHBE cells [1]; inhibitor 500 nM, 15 min preincubation, then UTP 100 μM 2 h, listed as calphostin C) was 121% and the “MARCKS phosphorylation (band in immunoprecipitation assay)” value (MARCKS; inhibitor 500 nM + 100 nM PMA) was “attenuated”. The “MARCKS phosphorylation (band in immunoprecipitation assay)” value (MARCKS; inhibitor 500 nM alone) was “dark band”.
